Laboratory results published in ChEMBL document CHEMBL4138123, “Design, synthesis and biological evaluation of novel pyrazolochalcones as potential modulators of PI3K/Akt/mTOR pathway and inducers of apoptosis in breast cancer cells” (Eur J Med Chem, 2017).

Key:
Format in all cases: functional
[1] = system: DU-145; test: Cytotoxicity against human DU145 cells assessed as cell growth at 0.1 uM after 48 hrs by sulforhodamine B assay relative to control; conditions: DU-145, 48 h, read-out: Activity
[2] = system: M14; test: Cytotoxicity against human M14 cells assessed as cell growth at 0.01 uM after 48 hrs by sulforhodamine B assay relative to control; conditions: M14, 48 h, read-out: Activity
[3] = system: SF-268; test: Cytotoxicity against human SF268 cells assessed as cell growth at 10 uM after 48 hrs by sulforhodamine B assay relative to control; conditions: SF-268, 48 h, read-out: Activity
[4] = system: HL-60(TB); test: Cytotoxicity against human HL-60(TB) cells assessed as cell growth at 1 uM after 48 hrs by sulforhodamine B assay relative to control; conditions: HL-60, 48 h, read-out: Activity
[5] = system: MDA-MB-468; test: Cytotoxicity against human MDA-MB-468 cells assessed as cell growth at 1 uM after 48 hrs by sulforhodamine B assay relative to control; conditions: MDA-MB-468, 48 h, read-out: Activity
[6] = system: COLO 205; test: Cytotoxicity against human COLO205 cells assessed as growth inhibition after 48 hrs by sulforhodamine B assay; conditions: COLO 205, 48 h
[7] = system: NCI-H226; test: Cytotoxicity against human NCI-H226 cells assessed as growth inhibition after 48 hrs by sulforhodamine B assay; conditions: NCI-H226, 48 h
[8] = system: NCI-H226; test: Cytotoxicity against human NCI-H226 cells assessed as cell growth at 1 uM after 48 hrs by sulforhodamine B assay relative to control; conditions: NCI-H226, 48 h, read-out: Activity
[9] = system: BT-549; test: Cytotoxicity against human BT549 cells assessed as cell growth at 1 uM after 48 hrs by sulforhodamine B assay relative to control; conditions: BT-549, 48 h, read-out: Activity
[10] = system: HT-29; test: Cytotoxicity against human HT-29 cells assessed as cell growth at 0.01 uM after 48 hrs by sulforhodamine B assay relative to control; conditions: HT-29, 48 h, read-out: Activity
[11] = system: SNB-19; test: Cytotoxicity against human SNB19 cells assessed as cell growth at 0.01 uM after 48 hrs by sulforhodamine B assay relative to control; conditions: SNB-19, 48 h, read-out: Activity
[12] = system: ACHN; test: Cytotoxicity against human ACHN cells assessed as cell growth at 10 uM after 48 hrs by sulforhodamine B assay relative to control; conditions: read-out: Activity
[13] = system: ACHN; test: Cytotoxicity against human ACHN cells assessed as cell growth at 100 uM after 48 hrs by sulforhodamine B assay relative to control; conditions: read-out: Activity
[14] = system: Malme-3M; test: Cytotoxicity against human MALME-3M cells assessed as cell growth at 1 uM after 48 hrs by sulforhodamine B assay relative to control; conditions: read-out: Activity
[15] = system: ACHN; test: Cytotoxicity against human ACHN cells assessed as growth inhibition after 48 hrs by sulforhodamine B assay
[16] = system: UACC-62; test: Cytotoxicity against human UACC62 cells assessed as cell growth at 0.01 uM after 48 hrs by sulforhodamine B assay relative to control; conditions: UACC-62, 48 h, read-out: Activity
[17] = system: HCT-116; test: Cytotoxicity against human HCT116 cells assessed as cell growth at 0.01 uM after 48 hrs by sulforhodamine B assay relative to control; conditions: HCT-116, 48 h, read-out: Activity
[18] = system: T47D; test: Cytotoxicity against human T47D cells assessed as cell growth at 10 uM after 48 hrs by sulforhodamine B assay relative to control; conditions: read-out: Activity
[19] = system: TK-10; test: Cytotoxicity against human TK10 cells assessed as growth inhibition after 48 hrs by sulforhodamine B assay; conditions: TK-10, 48 h
[20] = system: PC-3; test: Cytotoxicity against human PC3 cells assessed as cell growth at 10 uM after 48 hrs by sulforhodamine B assay relative to control; conditions: PC-3, 48 h, read-out: Activity
[21] = system: HOP-62; test: Cytotoxicity against human HOP62 cells assessed as cell growth at 0.01 uM after 48 hrs by sulforhodamine B assay relative to control; conditions: HOP-62, 48 h, read-out: Activity
[22] = system: OVCAR-5; test: Cytotoxicity against human OVCAR5 cells assessed as growth inhibition after 48 hrs by sulforhodamine B assay; conditions: OVCAR-5, 48 h
[23] = system: U-251; test: Cytotoxicity against human U251 cells assessed as growth inhibition after 48 hrs by sulforhodamine B assay; conditions: U-251, 48 h
[24] = system: BT-549; test: Cytotoxicity against human BT549 cells assessed as cell growth at 0.1 uM after 48 hrs by sulforhodamine B assay relative to control; conditions: BT-549, 48 h, read-out: Activity
[25] = system: 786-0; test: Cytotoxicity against human 786-0 cells assessed as cell growth at 10 uM after 48 hrs by sulforhodamine B assay relative to control; conditions: 786-0, 48 h, read-out: Activity
[26] = system: BT-549; test: Cytotoxicity against human BT549 cells assessed as cell growth at 10 uM after 48 hrs by sulforhodamine B assay relative to control; conditions: BT-549, 48 h, read-out: Activity
[27] = system: NCI-H460; test: Cytotoxicity against human NCI-H460 cells assessed as cell growth at 0.01 uM after 48 hrs by sulforhodamine B assay relative to control; conditions: NCI-H460, 48 h, read-out: Activity
[28] = system: T47D; test: Cytotoxicity against human T47D cells assessed as cell growth at 1 uM after 48 hrs by sulforhodamine B assay relative to control; conditions: read-out: Activity
[29] = system: SK-MEL-28; test: Cytotoxicity against human SK-MEL-28 cells assessed as cell growth at 0.1 uM after 48 hrs by sulforhodamine B assay relative to control; conditions: SK-MEL-28, 48 h, read-out: Activity
[30] = system: RPMI-8226; test: Cytotoxicity against human RPMI8226 cells assessed as cell growth at 0.1 uM after 48 hrs by sulforhodamine B assay relative to control; conditions: RPMI-8226, 48 h, read-out: Activity
[31] = system: OVCAR-5; test: Cytotoxicity against human OVCAR5 cells assessed as cell growth at 1 uM after 48 hrs by sulforhodamine B assay relative to control; conditions: OVCAR-5, 48 h, read-out: Activity
[32] = system: K562; test: Cytotoxicity against human K562 cells assessed as growth inhibition after 48 hrs by sulforhodamine B assay; conditions: K562, 48 h
[33] = system: MCF7; test: Cytotoxicity against human MCF7 cells assessed as cell growth at 0.01 uM after 48 hrs by sulforhodamine B assay relative to control; conditions: MCF7, 48 h, read-out: Activity
[34] = system: NCI/ADR-RES; test: Cytotoxicity against human NCI/ADR-RES cells assessed as cell growth at 0.01 uM after 48 hrs by sulforhodamine B assay relative to control; conditions: read-out: Activity
[35] = system: Malme-3M; test: Cytotoxicity against human MALME-3M cells assessed as growth inhibition after 48 hrs by sulforhodamine B assay
[36] = system: SK-MEL-2; test: Cytotoxicity against human SK-MEL-2 cells assessed as growth inhibition after 48 hrs by sulforhodamine B assay; conditions: SK-MEL-2, 48 h

COc1ccc(-c2cc(/C=C/C(=O)c3ccc(OC)c(OC)c3)[nH]n2)cc1
growth at 0.1 µM [1]: 109% | growth at 0.01 µM [2]: 101% | growth at 10 µM [3]: -40% | growth at 1 µM [4]: 86% | growth at 1 µM [5]: 61% | GI50 [6]: 1.76 µM | LC50 [6]: 6.16 µM | TGI [6]: 3.3 µM | GI50 [7]: 1.54 µM | TGI [7]: 3.51 µM | growth at 1 µM [8]: 76% | growth at 1 µM [9]: 85% | growth at 0.01 µM [10]: 101% | growth at 0.01 µM [11]: 96% | growth at 10 µM [12]: -58% | growth at 100 µM [13]: -98% | growth at 1 µM [14]: 82% | GI50 [15]: 1.68 µM | LC50 [15]: 8.71 µM | TGI [15]: 3.83 µM | growth at 0.01 µM [16]: 99% | growth at 0.01 µM [17]: 97% | growth at 10 µM [18]: -28% | GI50 [19]: 2.11 µM | LC50 [19]: 8.78 µM | TGI [19]: 4.31 µM | growth at 10 µM [20]: -61% | growth at 0.01 µM [21]: 97% | GI50 [22]: 1.65 µM | LC50 [22]: 10.6 µM | TGI [22]: 4.09 µM | GI50 [23]: 1.11 µM | LC50 [23]: 4.97 µM | TGI [23]: 2.34 µM | growth at 0.1 µM [24]: 105% | growth at 10 µM [25]: -89% | growth at 10 µM [26]: -70% | growth at 0.01 µM [27]: 100% | growth at 1 µM [28]: 70% | growth at 0.1 µM [29]: 98% | growth at 0.1 µM [30]: 93% | growth at 1 µM [31]: 77% | GI50 [32]: 1.28 µM | LC50 (concentration killing 50% of cells) [32]: > 100 µM | TGI [32]: 10.7 µM | growth at 0.01 µM [33]: 91% | growth at 0.01 µM [34]: 102% | GI50 [35]: 1.62 µM | LC50 [35]: 7.38 µM | TGI [35]: 3.45 µM

COc1ccc(C(=O)/C=C/c2cc(-c3ccc4c(c3)OCO4)n[nH]2)cc1OC
growth at 0.1 µM [1]: 100% | growth at 0.01 µM [2]: 98% | growth at 10 µM [3]: -12% | growth at 1 µM [4]: 89% | growth at 1 µM [5]: 85% | LC50 [6]: 45.9 µM | TGI [6]: 14 µM | LC50 (concentration killing 50% of cells) [7]: > 100 µM | TGI [7]: 11.2 µM | growth at 1 µM [8]: 106% | growth at 1 µM [9]: 95% | growth at 0.01 µM [10]: 93% | growth at 0.01 µM [11]: 91% | growth at 10 µM [12]: 13% | LC50 (concentration killing 50% of cells) [36]: 68 µM | TGI [36]: 23.2 µM | growth at 100 µM [13]: -4% | growth at 1 µM [14]: 106% | LC50 [15]: > 100 µM | TGI [15]: 56.5 µM | growth at 0.01 µM [16]: 98% | growth at 0.01 µM [17]: 105% | growth at 10 µM [18]: 22% | GI50 [19]: 2.88 µM | LC50 [19]: 70.4 µM | TGI [19]: 8.97 µM | growth at 10 µM [20]: 16% | growth at 0.01 µM [21]: 95% | LC50 [22]: > 100 µM | TGI [22]: 23.2 µM | LC50 [23]: 23.8 µM | TGI [23]: 5.37 µM | growth at 0.1 µM [24]: 99% | growth at 10 µM [25]: 5% | growth at 10 µM [26]: -57% | growth at 0.01 µM [27]: 101% | growth at 1 µM [28]: 79% | growth at 0.1 µM [29]: 104% | growth at 0.1 µM [30]: 97% | growth at 1 µM [31]: 86% | LC50 (concentration killing 50% of cells) [32]: > 100 µM | TGI [32]: 16.7 µM | growth at 0.01 µM [33]: 92% | LC50 [35]: 61.8 µM | TGI [35]: 22.8 µM
